From patent publication US12172983B2, “EGFR inhibitors” (Blueprint Medicines Corporation, priority 2019, dated 2024)
pIC50: −log10 of the molar value. Like-named read-outs stand apart in the source and are kept apart here.

Legend:
[1] = target: T1, EGFR (L858R T790M C797S) (Homo sapiens, UniProt P00533, C797S/L858R/T790M); assay: Biochemical EGFR inhibition assay (Caliper mobility shift), EGFR LRTMCS mutant; settings: inhibitory activity against EGFR LRTMCS mutant; apparent IC50; read-out: Ext Enz LRTMCS
T1 construct: purchased SignalChem E10-122VG
Description: Reactions proceeded until between 10% to 20% total peptides were phosphorylated at room temperature (25° C.) and were terminated with 35 mM 2,2′,2″,2′″-(ethane-1,2-diyldinitrilo)tetraacetic acid (EDTA). Product was detected using the Caliper mobility shift detection method where the phosphorylated peptide (product) and substrate were electrophoretically separated and measured. Percent activity was plotted against log concentration of compound and points to generate an apparent IC50.

[2] = system: phosphorylation of EGFR (Tyr1068) in NCI-H1975 cell line that harbors the EGFR L858R T790M mutations; assay: NCI-H1975 pEGFR AlphaLISA assay; assay type: cell-based; settings: 4-5 hours incubation, read-out: Ext pEGFR H1975
Description: Inhibitory effects of the compounds of the disclosure were evaluated in cellular assays that measure level of intracellular phosphorylation of EGFR in NCI-H1975 cell line that harbors the EGFR L858R T790M mutations (ATCC, CRL-5908) using AlphaLISA sureFire ultra p-EGFR (Tyr1068) assay kit (PerkinElmer, ALSU-PEGFR-A50K). The NCI-H1975 cells were seeded at 12.5K/well in 22 μL into 384 well opti plate (PerkinElmer, 6007299) and adhering overnight at 37 C/5% CO2. On the next day, the test compounds and DMSO control were added into H1975 cell plate followed by incubation at 37 C/5% CO2 for 4-5 hours. The cells were then spin down in the 384-well plate and lysed with 10 μL of 1×AlphaLISA lysis buffer followed by shaking at 600 rpm for 10 minutes at room temperature. After that, 5 μL of an acceptor bead mix was added to each well followed by incubation at room temperature for 1.5-2 h in dark. Then 5 μL of a donor bead mix was added to each well followed by overnight incubation at room temperature in dark. On the next day, the plate was read at a compatible plate reader to obtain pEGFR signal. Percent of pEGFR inhibition was plotted against log concentration of compounds to generate IC50 values.

[3] = Homo sapiens, NCI-H1975, inhibition of phosphorylation of mutant EGFR in NCI-H1975 cells
[4] = inhibition of phosphorylation of mutant EGFR in NCI-H1975 cells

T1 sequence (P00533 25-1210 T790M/C797S/L858R): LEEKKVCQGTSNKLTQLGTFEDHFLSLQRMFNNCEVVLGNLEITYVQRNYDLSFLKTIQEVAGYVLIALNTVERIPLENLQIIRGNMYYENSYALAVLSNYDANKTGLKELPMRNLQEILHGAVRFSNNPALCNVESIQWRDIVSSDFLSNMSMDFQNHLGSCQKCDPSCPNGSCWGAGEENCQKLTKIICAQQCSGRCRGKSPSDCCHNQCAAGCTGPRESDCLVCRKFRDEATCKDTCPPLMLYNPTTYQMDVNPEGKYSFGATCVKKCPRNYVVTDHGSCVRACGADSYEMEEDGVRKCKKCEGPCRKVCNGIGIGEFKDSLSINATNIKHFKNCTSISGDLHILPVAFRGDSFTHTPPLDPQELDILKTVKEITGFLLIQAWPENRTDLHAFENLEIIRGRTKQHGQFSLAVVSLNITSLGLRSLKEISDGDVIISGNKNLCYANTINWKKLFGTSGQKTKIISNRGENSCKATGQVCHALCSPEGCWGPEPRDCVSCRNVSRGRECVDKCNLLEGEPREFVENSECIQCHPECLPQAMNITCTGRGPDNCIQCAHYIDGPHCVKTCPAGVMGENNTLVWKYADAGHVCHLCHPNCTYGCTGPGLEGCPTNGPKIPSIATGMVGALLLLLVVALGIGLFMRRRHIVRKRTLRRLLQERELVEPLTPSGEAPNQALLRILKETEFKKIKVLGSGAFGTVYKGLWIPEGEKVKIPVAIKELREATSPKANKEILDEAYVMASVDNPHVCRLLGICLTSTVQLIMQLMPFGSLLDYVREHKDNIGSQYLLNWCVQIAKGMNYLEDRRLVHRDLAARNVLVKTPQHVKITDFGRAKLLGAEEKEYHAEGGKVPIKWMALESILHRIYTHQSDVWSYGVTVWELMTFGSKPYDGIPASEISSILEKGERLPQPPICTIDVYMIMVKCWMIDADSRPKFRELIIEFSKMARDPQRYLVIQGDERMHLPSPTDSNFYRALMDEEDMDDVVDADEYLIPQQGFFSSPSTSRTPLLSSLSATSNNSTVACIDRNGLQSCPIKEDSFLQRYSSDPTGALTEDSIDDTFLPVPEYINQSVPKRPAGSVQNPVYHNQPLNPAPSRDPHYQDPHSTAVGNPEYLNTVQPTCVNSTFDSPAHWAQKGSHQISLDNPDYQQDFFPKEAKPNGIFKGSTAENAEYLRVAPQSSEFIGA

| Compound | pIC50 [1] | pIC50 [2, 3] | pIC50 [2, 4] |
| --- | --- | --- | --- |
| CO[C@@H]1CCN(c2nccc(Nc3cc4c(F)ccc(N5C[C@H](CS(C)(=O)=O)[C@H]5C)c4cn3)n2)C[C@]1(C)F (single isomer, unassigned) [Compound 84] | ≥ 7.82 | 7.70 to 8.00 | – |
| [2H]C([2H])([2H])O[C@@H]1CCN(c2nccc(Nc3cc4c(C5CC5)ccc(N5C[C@H](CS(C)(=O)=O)[C@H]5C)c4cn3)n2)C[C@@H]1F [Compound 315, 5-cyclopropyl-N-(2-((3S,4R)-3-fluoro-4-(^2H3)piperidin-1-yl)pyrimidin-4-yl)-8-((2R,3S)-2-methyl-3-((methylsulfonyl)methyl)azetidin-1-yl)isoquinolin-3-amine] | ≥ 7.82 | ≥ 8.00 | – |
| CC(C)c1ccc(N2CC(CS(C)(=O)=O)C2)c2cnc(Nc3ccnc(N4C[C@H]5COC[C@H]5C4)n3)cc12 [Compound 10, N-{2-[(3aR,6aS)-hexahydro-1H-furo[3,4-c]pyrrol-5-yl]pyrimidin-4-yl}-8-[3-(methanesulfonylmethyl)azetidin-1-yl]-5-(propan-2-yl)isoquinolin-3-amine] | ≥ 7.82 | 7.30 to 7.52 | – |
| C[C@H](CO)c1ccc(N2C[C@H](CS(C)(=O)=O)[C@H]2C)c2cnc(Nc3ccnc(N4CC[C@@](C)(O)[C@@H](F)C4)n3)cc12 (single isomer, unassigned) [Compound 199, (3S,4R)-3-fluoro-1-(4-(5-((S)-1-hydroxypropan-2-yl)-8-((2R,3S)-2-methyl-3-(methylsulfonylmethyl)azetidin-1-yl)isoquinolin-3-ylamino)pyrimidin-2-yl)-4-methylpiperidin-4-ol or (3S,4R)-3-fluoro-1-(4-((5-((R)-1-hydroxypropan-2-yl)-8-((2R,3S)-2-methyl-3-((methylsulfonyl)methyl)azetidin-1-yl)isoquinolin-3-yl)amino)pyrimidin-2-yl)-4-methylpiperidin-4-ol] | ≥ 7.82 | 7.70 to 8.00 | – |
| CC(C)c1ccc(N2C[C@H](CS(C)(=O)=O)[C@H]2C)c2cnc(Nc3ccnc(N4CC[C@@H](O)[C@@H](F)C4)n3)cc12 [Compound 62, (3S,4R)-3-fluoro-1-(4-((5-isopropyl-8-((2R,3S)-2-methyl-3-((methylsulfonyl)methyl)azetidin-1-yl)isoquinolin-3-yl)amino)pyrimidin-2-yl)piperidin-4-ol] | ≥ 7.82 | ≥ 8.00 | – |
| CC(C)c1ccc(N2CC(CS(C)(=O)=O)C2)c2cnc(Nc3ccnc(N4CC[C@@](C)(O)[C@@H](F)C4)n3)cc12 (single isomer, unassigned) [Compound 56] | ≥ 7.82 | 7.70 to 8.00 | – |
| CC(C)c1ccc(N2C[C@H](CS(C)(=O)=O)[C@H]2C)c2cnc(Nc3ccnc(N4CC[C@@H](OCCN(C)C)[C@@H](F)C4)n3)cc12 [Compound 254, N-{2-[(3S,4R)-4-[2-(dimethylamino)ethoxy]-3-fluoropiperidin-1-yl]pyrimidin-4-yl}-8-[(2R,3S)-3-(methanesulfonylmethyl)-2-methylazetidin-1-yl]-5-(propan-2-yl)isoquinolin-3-amine] | ≥ 7.82 | ≥ 8.00 | – |
| CO[C@H]1CCN(c2nccc(Nc3cc4c(C(C)C)ccc(N5C[C@H](CS(C)(=O)=O)[C@H]5C)c4cn3)n2)C[C@H]1F [Compound 123, N-(2-((3R,4S)-3-fluoro-4-methoxypiperidin-1-yl)pyrimidin-4-yl)-5-isopropyl-8-((2R,3S)-2-methyl-3-((methylsulfonyl)methyl)azetidin-1-yl)isoquinolin-3-amine] | – | ≥ 8.00 | – |
| CCS(=O)(=O)C[C@H]1CN(c2ncc(C(C)C)c3cc(Nc4ccnc(N5CC[C@@](C)(O)C(F)(F)C5)n4)ncc23)[C@@H]1C (single isomer, unassigned) [Compound 230, (4R)-1-[4-({8-[(2R,3S)-3-[(ethanesulfonyl)methyl]-2-methylazetidin-1-yl]-5-(propan-2-yl)-2,7-naphthyridin-3-yl}amino)pyrimidin-2-yl]-3,3-difluoro-4-methylpiperidin-4-ol or (4S)-1-[4-({8-[(2R,3S)-3-[(ethanesulfonyl)methyl]-2-methylazetidin-1-yl]-5-(propan-2-yl)-2,7-naphthyridin-3-yl}amino)pyrimidin-2-yl]-3,3-difluoro-4-methylpiperidin-4-ol] | 7.70 to 7.82 | ≥ 8.00 | – |
| CC(C)c1ccc(N2C[C@H](CS(C)(=O)=O)[C@H]2C)c2cnc(Nc3ccnc(N4CC[C@H](O)[C@@](C)(F)C4)n3)cc12 (single isomer, unassigned) [Compound 120, (3R,4R)-3-fluoro-1-[4-({8-[(2R,3S)-3-(methanesulfonylmethyl)-2-methylazetidin-1-yl]-5-(propan-2-yl)isoquinolin-3-yl}amino)pyrimidin-2-yl]-3-methylpiperidin-4-ol or (3S,4S)-3-fluoro-1-[4-({8-[(2R,3S)-3-(methanesulfonylmethyl)-2-methylazetidin-1-yl]-5-(propan-2-yl)isoquinolin-3-yl}amino)pyrimidin-2-yl]-3-methylpiperidin-4-ol] | – | – | 7.70 to 8.00 |
| CO[C@H]1CCN(c2nccc(Nc3cc4c(C(C)(C)N)ccc(N5C[C@H](CS(C)(=O)=O)[C@H]5C)c4cn3)n2)C[C@H]1F [Compound 312, 5-(2-aminopropan-2-yl)-N-(2-((3R,4S)-3-fluoro-4-methoxypiperidin-1-yl)pyrimidin-4-yl)-8-((2R,3S)-2-methyl-3-((methylsulfonyl)methyl)azetidin-1-yl)isoquinolin-3-amine] | ≥ 7.82 | – | – |
| CO[C@@H]1CCN(c2nccc(Nc3cc4c(C(C)C)ccc(N5C[C@H](CS(C)(=O)=O)[C@H]5C)c4cn3)n2)C[C@H]1F (single isomer, unassigned) [Compound 279, N-{2-[(3S,4S)-3-fluoro-4-methoxypiperidin-1-yl]pyrimidin-4-yl}-8-[(2R,3S)-3-(methanesulfonylmethyl)-2-methylazetidin-1-yl]-5-(propan-2-yl)isoquinolin-3-amine or N-{2-[(3R,4R)-3-fluoro-4-methoxypiperidin-1-yl]pyrimidin-4-yl}-8-[(2R,3S)-3-(methanesulfonylmethyl)-2-methylazetidin-1-yl]-5-(propan-2-yl)isoquinolin-3-amine] | – | – | 7.52 to 7.70 |
| CO[C@@H]1CCN(c2nccc(Nc3cc4c(C(C)C)ccc(N5C[C@H](CS(C)(=O)=O)[C@H]5C)c4cn3)n2)C[C@H]1F (single isomer, unassigned) [Compound 278, N-{2-[(3R,4R)-3-fluoro-4-methoxypiperidin-1-yl]pyrimidin-4-yl}-8-[(2R,3S)-3-(methanesulfonylmethyl)-2-methylazetidin-1-yl]-5-(propan-2-yl)isoquinolin-3-amine or N-{2-[(3S,4S)-3-fluoro-4-methoxypiperidin-1-yl]pyrimidin-4-yl}-8-[(2R,3S)-3-(methanesulfonylmethyl)-2-methylazetidin-1-yl]-5-(propan-2-yl)isoquinolin-3-amine] | – | 7.52 to 7.70 | – |
| CC(C)c1ccc(N2C[C@H](CS(C)(=O)=O)[C@H]2C)c2cnc(Nc3ccnc(N4CC[C@H](O)[C@@](C)(F)C4)n3)cc12 (single isomer, unassigned) [Compound 119, (3S,4S)-3-fluoro-1-[4-({8-[(2R,3S)-3-(methanesulfonylmethyl)-2-methylazetidin-1-yl]-5-(propan-2-yl)isoquinolin-3-yl}amino)pyrimidin-2-yl]-3-methylpiperidin-4-ol or (3R,4R)-3-fluoro-1-[4-({8-[(2R,3S)-3-(methanesulfonylmethyl)-2-methylazetidin-1-yl]-5-(propan-2-yl)isoquinolin-3-yl}amino)pyrimidin-2-yl]-3-methylpiperidin-4-ol] | – | 7.52 to 7.70 | – |
| CC(C)c1ccc(N2CC(CS(C)(=O)=O)C2)c2cnc(Nc3ccnc(N4CC[C@H](O)[C@@](C)(F)C4)n3)cc12 (single isomer, unassigned) [Compound 61, (3S,4S)-3-fluoro-1-[4-({8-[3-(methanesulfonylmethyl)azetidin-1-yl]-5-(propan-2-yl)isoquinolin-3-yl}amino)pyrimidin-2-yl]-3-methylpiperidin-4-ol or (3R,4R)-3-fluoro-1-[4-({8-[3-(methanesulfonylmethyl)azetidin-1-yl]-5-(propan-2-yl)isoquinolin-3-yl}amino)pyrimidin-2-yl]-3-methylpiperidin-4-ol] | – | 7.30 to 7.52 | – |
| CO[C@@H]1CCN(c2nccc(Nc3cc4c(C(C)C)ccc(N5C[C@H](CS(C)(=O)=O)[C@H]5C)c4cn3)n2)C[C@@H]1F [Compound 122, N-(2-((3S,4R)-3-fluoro-4-methoxypiperidin-1-yl)pyrimidin-4-yl)-5-isopropyl-8-((2R,3S)-2-methyl-3-((methylsulfonyl)methyl)azetidin-1-yl)isoquinolin-3-amine] | – | ≥ 8.00 | – |
| CC(C)c1cnc(N2CC(CS(C)(=O)=O)C2)c2cnc(Nc3ccnc(N4CC[C@@H](O)[C@@](C)(F)C4)n3)cc12 (single isomer, unassigned) [Compound 67] | – | ≥ 8.00 | – |
